Assay results taken from patent publication US20070093513A1, “Agent for repairing corneal perception” (SENJU PHARMACEUTICAL CO., LTD., priority 2003, published 2007).
Structures can show the parent of a compound that is named as a salt.

Key:
[1] = system: cultured rabbit trigeminal nerve cells; test: Neurite outgrowth promoting effect in cultured rabbit trigeminal nerve cells (Experimental Example 2); assay type: cell-based, Japanese White Rabbits; conditions: cultured for 48 hrs, non-addition group about 31%
Excerpt: Japanese White Rabbits (2-3 days old) purchased from KITAYAMA LABES Co., Ltd. were used.
As a ROCK inhibitor, 2-chloro-6,7-dimethoxy-N-[5-1H-indazolyl]quinazoline-4-amine, N-(1-benzyl-4-piperidinyl)-1H-indazole-5-amine dihydrochloride, 4-[2-(2,3,4,5,6-pentafluorophenyl)acryloyl]cinnamic acid and fasudil hydrochloride were used.
2-Chloro-6,7-dimethoxy-N-[5-1H-indazolyl]quinazoline-4-amine (hereinafter to be indicated as compound 1) used was synthesized according to Reference Example 1. N-(1-benzyl-4-piperidinyl)-1H-indazole-5-amine dihydrochloride.½ hydrate (hereinafter to be indicated as compound 2) used was synthesized according to Reference Example 2. 4-[2-(2,3,4,5,6-Pentafluorophenyl)acryloyl]cinnamic acid (hereinafter to be indicated as compound 3) used was synthesized according to Reference Example 3. Fasudil hydrochloride (hereinafter to be indicated as compound 4) used was a commercially available fasudil hydrochloride hydrate injection, “Eril Injection 30 mg” (manufactured by Asahi Kasei Corporation).
Rabbit trigeminal nerve cells were isolated in the same manner as in Experimental Example 1. For cell culture, a culture medium obtained by adding B27 Supplement (manufactured by GIBCO; final concentration 2% v/v) and L-glutamine (manufactured by GIBCO; concentration 1 mM) to neurobasal culture medium (manufactured by GIBCO) was used. A circular cover glass (diameter 12 mm; manufactured by SUMITOMO BAKELITE) after polylysine/laminin coating was placed in each well of a 24 well plate, and cells were plated on the cover glass at about 3×10^3 cells/well. After cell adhesion to the cover glass (about 2 hrs), the above-mentioned culture medium was changed to a culture medium containing each test substance (compound 1, final concentration 10 μM; compound 2, final concentration 10 μM; compound 3, final concentration 1 μM; compound 4, final concentration 10 μM) and the cells were cultured for 48 hrs. […]
A specimen fixed using an anti-neurofilament 200 antibody (manufactured by Sigma) that recognize neurofilaments, which are intermediate filaments specific to nerve cell, and a fluorescent secondary antibody (manufactured by Molecular Probes) reactive therewith was fluorescence stained and the stained cells were detected using a fluorescence microscope. […] The whole cell number (t) of each image was counted. Along therewith, the length of cell neurite and the diameter of cell body were measured using an image analysis software (MacSCOPE, manufactured by MITANI CO.), and the cells having a neurite with a length of not less than twice the diameter of the cell body were counted as neuritogenetic cell (a). Then the rate (%) of the total neuritogenetic cell number (a1+a2+ . . . +an=Σa) to the total cell number (Σt) was calculated. […]

COc1cc2nc(Cl)nc(Nc3ccc4[nH]ncc4c3)c2cc1OC [compound 1, 2-Chloro-6,7-dimethoxy-N-[5-1H-indazolyl]quinazoline-4-amine]
rate of the neuritogenetic cells relative to the total cells ([1]; final concentration 10 μM): about 41% | melting point: 278.7 to 283.8 °C

Cl.Cl.Cl.Cl.O.c1ccc(CN2CCC(Nc3ccc4[nH]ncc4c3)CC2)cc1.c1ccc(CN2CCC(Nc3ccc4[nH]ncc4c3)CC2)cc1 [compound 2, N-(1-benzyl-4-piperidinyl)-1H-indazole-5-amine dihydrochloride.½ hydrate]
rate of the neuritogenetic cells relative to the total cells ([1]; final concentration 10 μM): about 57%

C=C(C(=O)c1ccc(C=CC(=O)O)cc1)c1c(F)c(F)c(F)c(F)c1F [compound 3, 4-[2-(2,3,4,5,6-Pentafluorophenyl)acryloyl]cinnamic acid]
rate of the neuritogenetic cells relative to the total cells ([1]; final concentration 1 μM): about 51%

O=S(=O)(c1cccc2cnccc12)N1CCCNCC1 [compound 4, Fasudil hydrochloride]
rate of the neuritogenetic cells relative to the total cells ([1]; final concentration 10 μM): about 70%
